Where “and” joins values, the source holds several entries; their conditions need not be identical. Equal values may be shown once.

These results are taken from publication PMC2096555 (Purinergic Signalling, 2005).

For test [1], the target named is T1, rat NTPDase3 (Rattus norvegicus, UniProt A6I415).
T1 sequence (A6I415 1-529): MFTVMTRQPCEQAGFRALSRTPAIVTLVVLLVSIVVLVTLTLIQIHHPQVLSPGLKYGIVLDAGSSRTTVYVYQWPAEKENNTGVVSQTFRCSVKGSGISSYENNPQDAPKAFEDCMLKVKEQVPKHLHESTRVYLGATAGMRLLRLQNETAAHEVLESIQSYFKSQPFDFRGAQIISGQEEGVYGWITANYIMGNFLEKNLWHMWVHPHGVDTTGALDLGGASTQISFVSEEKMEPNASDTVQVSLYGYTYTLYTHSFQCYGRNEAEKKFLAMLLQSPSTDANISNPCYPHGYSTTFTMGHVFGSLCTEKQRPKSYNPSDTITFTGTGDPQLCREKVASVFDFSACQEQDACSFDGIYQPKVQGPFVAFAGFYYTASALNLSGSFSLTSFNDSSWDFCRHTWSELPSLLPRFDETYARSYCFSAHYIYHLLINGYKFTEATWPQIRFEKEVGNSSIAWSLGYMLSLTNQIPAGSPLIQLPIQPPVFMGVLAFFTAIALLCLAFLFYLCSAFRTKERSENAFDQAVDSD
The class given is biochemical.

Test [2] relates to rat superior cervical ganglionic cells. The conditions noted are these: at 10 µM concentration; cited from earlier work.
Test [3] has as its target T2, rat NTPDase1 (Rattus norvegicus, UniProt P97687).
T2 sequence (P97687 1-511): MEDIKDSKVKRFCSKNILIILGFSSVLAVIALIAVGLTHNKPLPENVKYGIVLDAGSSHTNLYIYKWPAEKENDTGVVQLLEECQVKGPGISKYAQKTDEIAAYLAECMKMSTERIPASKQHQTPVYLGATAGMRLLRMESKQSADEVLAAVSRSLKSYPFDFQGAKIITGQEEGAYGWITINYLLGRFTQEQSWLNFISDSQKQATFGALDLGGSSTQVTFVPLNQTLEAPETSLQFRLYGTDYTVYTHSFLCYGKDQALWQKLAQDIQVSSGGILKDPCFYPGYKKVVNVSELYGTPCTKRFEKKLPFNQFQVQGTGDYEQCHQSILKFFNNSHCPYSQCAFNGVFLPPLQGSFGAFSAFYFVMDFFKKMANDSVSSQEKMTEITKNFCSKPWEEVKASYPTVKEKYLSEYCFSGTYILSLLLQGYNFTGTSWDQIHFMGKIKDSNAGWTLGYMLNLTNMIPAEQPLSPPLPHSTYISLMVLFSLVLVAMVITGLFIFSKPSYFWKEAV
The class given is biochemical.

The target of test [4] is T3, rat NTPDase2 (Rattus norvegicus, UniProt O35795).
T3 sequence (O35795 1-495): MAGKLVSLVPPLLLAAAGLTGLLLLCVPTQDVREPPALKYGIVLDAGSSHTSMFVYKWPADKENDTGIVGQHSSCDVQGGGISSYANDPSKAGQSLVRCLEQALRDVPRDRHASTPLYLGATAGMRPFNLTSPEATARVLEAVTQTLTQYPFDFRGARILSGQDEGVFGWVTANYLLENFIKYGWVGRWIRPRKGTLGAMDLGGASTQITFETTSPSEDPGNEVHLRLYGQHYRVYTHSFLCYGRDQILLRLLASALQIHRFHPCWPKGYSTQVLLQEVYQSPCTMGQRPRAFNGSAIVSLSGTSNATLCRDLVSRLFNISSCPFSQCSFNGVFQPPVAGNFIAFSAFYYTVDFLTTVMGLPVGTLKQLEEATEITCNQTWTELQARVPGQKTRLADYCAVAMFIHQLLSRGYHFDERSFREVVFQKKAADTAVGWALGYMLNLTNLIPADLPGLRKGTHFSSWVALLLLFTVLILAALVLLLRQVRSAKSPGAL
The class given is biochemical.

Test [5] relates to human NTPDase1. The conditions noted are these: read-out: Reported Km human NTPDase1; ATP; cited from earlier work.
Test [6] has as its target T1, rat NTPDase3. The class given is biochemical. The source holds these as a separate data set.
For test [7], the target named is T2, rat NTPDase1. The test is classed as biochemical. This is another data set of the same source.
Test [8] has as its system mouse NTPDase2. Particulars: read-out: Reported Km mouse NTPDase2; ATP; no reference given; cited from earlier work.
Test [9] concerns human NTPDase3. Particulars: read-out: Reported Km human NTPDase3; ATP; respectively ref 32, 40; cited from earlier work.
Test [10] has as its target T3, rat NTPDase2. The test is classed as biochemical. The source holds these as a separate data set.
The test system of test [11] is mouse NTPDase1. The conditions noted are these: read-out: Reported Km mouse NTPDase1; ATP; cited from earlier work.
In test [12] the test system is recombinant rat NTPDase1. Particulars: read-out: Reported Km recombinant rat NTPDase1; ATP; cited from earlier work.
Test [13] relates to mouse NTPDase3. The conditions noted are these: read-out: Reported Km mouse NTPDase3; ATP; cited from earlier work.
Where [14] appears, read: substrate ATP, membrane preparation.

The Ki is the equilibrium dissociation constant of an inhibitor or competing ligand from its target. A high value points to a looser hold on the target. Regarding `OCCN(CCO)c1nc(N2CCCCC2)c2nc(N(CCO)CCO)nc(N3CCCCC3)c2n1` [Dipyridamole, dipyridamole], the inhibitory constant (Ki) in test [1], in test [3] and in [4] was over 1000 µM throughout. In addition, the “inhibition of ATP hydrolysis” value in [2] is listed as “effective inhibitor”.

In general, Km refers to the concentration of substrate that gives half-maximal velocity. Turning to `Nc1ncnc2c1ncn2[C@@H]1O[C@H](COP(=O)(O)OP(=O)(O)OP(=O)(O)O)[C@@H](O)[C@H]1O` [ATP], the Km is 17 µM in test [5]; 311 ± 4 µM in test [6] (read-out: Km ± SEM NTPDase3, substrate ATP 25-1000 µM, product ADP); 76 ± 12 µM in test [7] (read-out: Km ± SEM NTPDase1, substrate ATP 10-1000 µM, product AMP); 37 µM in [8]; 75 µM and 128 µM in test [9]; 203 ± 8 µM in [10] (read-out: Km ± SEM NTPDase2, substrate ATP 25-1000 µM, product ADP). Further, the figures for the Km in test [11], in [12] and in test [13] were 12 µM, 75 µM and 11 µM, respectively. The “Vmax ± SEM NTPDase3” value in test [6] (setting [14]) was determined as 0.010 ± 0.001 μmol/min/mg protein. Also, the “Vmax ± SEM NTPDase1” value in test [7] (setting [14]) worked out at 0.023 ± 0.002 μmol/min/mg protein. Further, in test [10] (setting [14]), the “Vmax ± SEM NTPDase2” value amounted to 0.021 ± 0.002 μmol/min/mg protein.

Turning to `Cc1ccc(C(=O)Nc2ccc(S(=O)(=O)O)c3cc(S(=O)(=O)O)cc(S(=O)(=O)O)c23)cc1NC(=O)c1cccc(NC(=O)Nc2cccc(C(=O)Nc3cc(C(=O)Nc4ccc(S(=O)(=O)O)c5cc(S(=O)(=O)O)cc(S(=O)(=O)O)c45)ccc3C)c2)c1` [Suramin, suramin], the “Ki for NTPDase1 relative to NTPDase2” value in [3] (ratio of Ki values) is reported as “five fold higher”.
